Measured values from US11147272B2, “Pyridone compounds and agricultural and horticultural fungicides comprising the same as active ingredients” (MITSUI CHEMICALS AGRO, INC., priority 2017, dated 2021).

Experiments:
Magnaporthe grisea = experiment: whole plant or invertebrate; format: in vivo; conditions: for Test A control value class: class of control value
Alternaia brassicicola = experiment: Test Example C: Alternaria sooty spot on cabbage; format: in vivo; conditions: for Test C control value class: class of control value
From the text: Seeds of a test plant (cabbage variety: Shikidori) were planted and cultivated until the cotyledons extended.
<Control Value> Control value=100{1−(n/3)}

Puccinia recondita = experiment: Test Example E: Brown rust on wheat; format: in vivo; conditions: for Test E control value class: class of control value
Phytophthora infestans = experiment: whole plant or invertebrate; format: in vivo; conditions: for Test F control value class: class of control value
Botrytis cinerea = experiment: Test Example B: Gray mold on tomato; conditions: for Test B control value class: class of control value
Plasmopara viticola = experiment: Test Example G: Downy mildew on vine; conditions: for Test G control value class: Downy mildew on vine (Neomuscat), 2.5 ml/pot, assessed 7 to 10 days after inoculation; for Test G control value: 7 to 10 days after inoculation
[1] = system: Colletotrichum orbiculare; experiment: Test Example H: Anthracnose on cucumber; conditions: for Test H control value class: Anthracnose on cucumber (Sagami Hanjiro), 2.5 ml/pot, assessed 6 to 10 days after inoculation; for Test H control value: 6 to 10 days after inoculation
[2] = system: Blumeria graminis f. sp. hordei; experiment: Test Example D: Powdery mildew on barley; conditions: for Test D control value class: class of control value
[3] = Alternaria sooty spot on cabbage
[4] = 250 ppm drug solution sprayed on test plant
[5] = 250 ppm drug solution sprayed (2.5 ml/pot), grape Neomuscat
[6] = 250 ppm drug solution sprayed (2.5 ml/pot), cucumber Sagami Hanjiro
[7] = Blast on rice, control value class
[8] = Alternaria sooty spot on cabbage, control value class
[9] = Brown rust on wheat, control value class
[10] = Late blight on tomato, control value class
[11] = Gray mold on tomato, control value class
[12] = Downy mildew on vine, 250 ppm spray
[13] = Anthracnose on cucumber, 250 ppm spray
[14] = Powdery mildew on barley, control value class

| SMILES | Test A control value class (Magnaporthe grisea; Blast on rice) | Test C control value class (Alternaia brassicicola; [3]) | Test E control value class (Puccinia recondita; Brown rust on wheat) | Test F control value class (Phytophthora infestans; Late blight on tomato) | Test B control value class (Botrytis cinerea; Gray mold on tomato) | Test G control value class (Plasmopara viticola; 250 ppm spray) | Test H control value class ([1]; 250 ppm spray) | Test D control value class ([2]; Powdery mildew on barley) | Test A control value (Magnaporthe grisea; [4]) | Test C control value (Alternaia brassicicola; [4]) | Test E control value (Puccinia recondita; [4]) | Test F control value (Phytophthora infestans; [4]) | Test B control value (Botrytis cinerea; [4]) | Test G control value (Plasmopara viticola; [5]) | Test H control value [1, 6] | Test D control value [2, 4] | other results |
| --- | --- | --- | --- | --- | --- | --- | --- | --- | --- | --- | --- | --- | --- | --- | --- | --- | --- |
| CCn1c(-c2ccc(Br)cc2)c(CC(C)C)ccc1=O [compound 175] | L (50% or less control value) | L (50% or less control value) | H (more than 50% control value) | L (50% or less control value) | H (more than 50% control value) | L (50% or less control value) | L (50% or less control value) | H (more than 50% control value) |  |  |  |  |  |  |  |  |  |
| CCc1ccc(=O)n(CC)c1-c1c(F)cc(OC)cc1F [compound 388] |  |  |  |  |  |  |  |  | H (more than 50% control value) | H (more than 50% control value) | H (more than 50% control value) | L (50% or less control value) | H (more than 50% control value) | L (50% or less control value) | H (more than 50% control value) | L (50% or less control value) |  |
| CCC(C)c1cc(Br)c(=O)n(CC)c1-c1c(F)cc(F)cc1F (centres unmarked) [compound 32] | H (more than 50% control value) | H (more than 50% control value) | H (more than 50% control value) | L (50% or less control value) | H (more than 50% control value) | L (50% or less control value) | H (more than 50% control value) | H (more than 50% control value) |  |  |  |  |  |  |  |  |  |
| CCC(OC)c1cc(Br)c(=O)n(CC)c1-c1c(F)cc(F)cc1F (centres unmarked) [compound 504] |  |  |  |  |  |  |  |  | H (more than 50% control value) | H (more than 50% control value) | H (more than 50% control value) | L (50% or less control value) | H (more than 50% control value) | H (more than 50% control value) | H (more than 50% control value) | H (more than 50% control value) |  |
| CCCCCCCCc1ccc(=O)n(CC)c1-c1ccc(F)cc1Cl [compound 270] |  |  |  |  |  |  |  |  |  |  |  |  |  |  |  |  | Test A control value (Magnaporthe grisea; [7]): L (50% or less control value); Test C control value (Alternaia brassicicola; [8]): L (50% or less control value); Test E control value (Puccinia recondita; [9]): L (50% or less control value); Test F control value (Phytophthora infestans; [10]): L (50% or less control value); Test B control value (Botrytis cinerea; [11]): L (50% or less control value); Test G control value (Plasmopara viticola; [12]): L (50% or less control value); Test H control value [1, 13]: L (50% or less control value); Test D control value [2, 14]: H (more than 50% control value) |
| CCOc1cc(F)c(-c2c(C(C)(OC)C(C)C)cc(Cl)c(=O)n2CC)c(F)c1 (centres unmarked) [compound 227] |  |  |  |  |  |  |  |  |  |  |  |  |  |  |  |  | Test A control value (Magnaporthe grisea; [7]): H (more than 50% control value); Test C control value (Alternaia brassicicola; [8]): H (more than 50% control value); Test E control value (Puccinia recondita; [9]): H (more than 50% control value); Test F control value (Phytophthora infestans; [10]): L (50% or less control value); Test B control value (Botrytis cinerea; [11]): H (more than 50% control value); Test G control value (Plasmopara viticola; [12]): H (more than 50% control value); Test H control value [1, 13]: H (more than 50% control value); Test D control value [2, 14]: H (more than 50% control value) |
| CCCc1ccc(=S)n(CC)c1-c1c(F)cc(F)cc1F [compound 427] |  |  |  |  |  |  |  |  | L (50% or less control value) | H (more than 50% control value) | L (50% or less control value) | L (50% or less control value) | H (more than 50% control value) | L (50% or less control value) | H (more than 50% control value) | L (50% or less control value) |  |
| CCCC1=C(c2c(F)cc(F)cc2F)N(CCC)C(=O)CC1 [compound 435] |  |  |  |  |  |  |  |  | L (50% or less control value) | H (more than 50% control value) | L (50% or less control value) | H (more than 50% control value) | L (50% or less control value) | L (50% or less control value) | L (50% or less control value) | L (50% or less control value) |  |
| CCn1c(-c2c(F)cc(F)cc2F)c(C)cc(I)c1=O [compound 379] |  |  |  |  |  |  |  |  | L (50% or less control value) | H (more than 50% control value) | H (more than 50% control value) | L (50% or less control value) | H (more than 50% control value) | L (50% or less control value) | H (more than 50% control value) | H (more than 50% control value) |  |
| CCn1c(-c2c(F)cccc2F)c(COC(C)C)cc(Cl)c1=O [compound 57] | L (50% or less control value) | H (more than 50% control value) | H (more than 50% control value) | L (50% or less control value) | H (more than 50% control value) | L (50% or less control value) | H (more than 50% control value) | H (more than 50% control value) |  |  |  |  |  |  |  |  |  |
| C#CCOc1cc(F)c(-c2c(CCC)ccc(=O)n2CC)c(F)c1 [compound 459] |  |  |  |  |  |  |  |  | H (more than 50% control value) | H (more than 50% control value) | H (more than 50% control value) | L (50% or less control value) | H (more than 50% control value) | H (more than 50% control value) | H (more than 50% control value) | H (more than 50% control value) |  |
| CCOC(C)(C)c1cc(Cl)c(=O)n(CC)c1-c1c(F)cc(F)cc1F [compound 161] | H (more than 50% control value) | H (more than 50% control value) | H (more than 50% control value) | L (50% or less control value) | H (more than 50% control value) | H (more than 50% control value) | H (more than 50% control value) | H (more than 50% control value) |  |  |  |  |  |  |  |  |  |
| CCn1c(-c2c(F)cc(F)cc2F)c(C(=O)C(C)C)ccc1=O [compound 454] |  |  |  |  |  |  |  |  | L (50% or less control value) | H (more than 50% control value) | H (more than 50% control value) | L (50% or less control value) | H (more than 50% control value) | L (50% or less control value) | H (more than 50% control value) | H (more than 50% control value) |  |
